For one assay, the target named is OXA-1 (Escherichia coli, UniProt P13661). To be noted: read-out: IC50 β-lactamase OXA-1; class (D); nitrocefin 200 μM, 30-min pre-incubation, enzyme 0.2 nM.
Another assay deals with OXA-11 (Pseudomonas aeruginosa, UniProt Q06778). To be noted: read-out: IC50 β-lactamase OXA-11; class (D); nitrocefin 200 μM, 30-min pre-incubation, enzyme 1.2 nM.
In the next assay the target is CTX-M-15 (Escherichia coli, UniProt Q9EXV5). To be noted: read-out: IC50 β-lactamase CTX-M-15; class (A); nitrocefin 200 μM, 30-min pre-incubation, enzyme 0.4 nM.
In another assay the target is AmpC (PAE) (Pseudomonas aeruginosa, UniProt P24735). To be noted: read-out: IC50 β-lactamase AmpC (PAE); class (C); nitrocefin 200 μM, 30-min pre-incubation, enzyme 0.4 nM.
In another assay the target is SHV-1 (Klebsiella pneumoniae, UniProt P0AD64). To be noted: read-out: IC50 β-lactamase SHV-1; class (A); nitrocefin 200 μM, 30-min pre-incubation, enzyme 0.075 nM.
The subject of assay [1] is K. pneumoniae 6299. Briefly: MIC of ceftazidime (CAZ) at fixed concentration of compound (synergy), broth microdilution. Format: cell-based. To be noted: strain 6299; MIC of CAZ, compound fixed at 4 μg/mL. The protocol:
(§1) Log phase bacterial suspensions were adjusted to a final density of 5×10^5 cfu/mL in cation-adjusted Mueller-Hinton broth (Becton-Dickinson) and added to each well (98 μL). Microplates were incubated for 16-20 h at 35° C. in ambient air. The MIC of the compounds was defined as the lowest concentration of said compounds that prevented bacterial growth as read by visual inspection.

Assay [2] has as its system P. aeruginosa CIP107051. The assay is described as above. It counts as cell-based. To be noted: strain CIP107051; MIC of CAZ, compound fixed at 4 μg/mL. The protocol:
as §1

The test system of assay [3] is K. pneumoniae BAA-1898. The description is as above. It counts as cell-based. To be noted: strain BAA-1898; MIC of CAZ, compound fixed at 4 μg/mL. The protocol: as §1
Assay [4] deals with E. coli 190317. Described as above. To be noted: strain 190317; MIC of CAZ, compound fixed at 4 μg/mL. It counts as cell-based. How it is done:
as §1

Assay [5] has as its system E. cloacae P99. The description is as above. Format: cell-based. To be noted: strain P99; MIC of CAZ, compound fixed at 4 μg/mL. The protocol: as §1
The target in the next assay is OXA-48 (Klebsiella pneumoniae, UniProt Q6XEC0). To be noted: read-out: IC50 β-lactamase OXA-48; class (D); nitrocefin 200 μM, 30-min pre-incubation, enzyme 0.3 nM.
In the next assay the target is OXA-15 (Pseudomonas aeruginosa, UniProt Q51574). To be noted: read-out: IC50 β-lactamase OXA-15; class (D); nitrocefin 200 μM, 30-min pre-incubation, enzyme 0.4 nM.
Assay [6] relates to K. pneumoniae 6299. Briefly: MIC of compound alone, broth microdilution. To be noted: strain 6299; compound alone. It counts as cell-based. Summed up: (§2)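 Growth inhibition was scored by eye after 16-20 h at 35° C (room air), with bacteria from log phase seeded at 5×10^5 cfu/mL final in cation-adjusted Mueller-Hinton medium.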
A general note: Broth dilution looks for growth in wells or tubes with falling amounts of substance.

Assay [7] relates to P. aeruginosa CIP107051. Briefly: MIC of compound alone, broth microdilution. Format: cell-based. To be noted: strain CIP107051; compound alone. The method in brief:
as §2

Assay [8] deals with K. pneumoniae BAA-1898. Briefly: MIC of compound alone, broth microdilution. It counts as cell-based. To be noted: strain BAA-1898; compound alone. The method in brief:
as §2

Assay [9] deals with E. coli 190317. Briefly: MIC of compound alone, broth microdilution. It counts as cell-based. To be noted: strain 190317; compound alone. The method in brief: as §2
The subject of assay [10] is E. cloacae P99. The experiment in a line: MIC of compound alone, broth microdilution. Format: cell-based. To be noted: strain P99; compound alone. Summed up: as §2
The next assay concerns the target CMY-37 (Citrobacter freundii, UniProt P05193). To be noted: read-out: IC50 β-lactamase CMY-37; class (C); nitrocefin 200 μM, 30-min pre-incubation, enzyme 0.2 nM.
Another assay addresses TEM-1 (Escherichia coli, UniProt P62593). To be noted: read-out: IC50 β-lactamase TEM-1; class (A); nitrocefin 200 μM, 30-min pre-incubation, enzyme 0.1 nM.
In the next assay the target is AmpC (P99) (Enterobacter cloacae, UniProt P05364). To be noted: read-out: IC50 β-lactamase AmpC (P99); class (C); nitrocefin 200 μM, 30-min pre-incubation, enzyme 0.2 nM.
For a further assay, the target named is KPC-2 (Klebsiella pneumoniae, UniProt Q9F663). To be noted: read-out: IC50 β-lactamase KPC-2; class (A); nitrocefin 200 μM, 30-min pre-incubation, enzyme 1 nM.

Each structure is given as a SMILES string.

In general, IC50 refers to the point on the concentration scale where inhibition reaches its midpoint. On to `NCCNC(=O)Cc1ccn(C2=CC3CN(C2)C(=O)N3OS(=O)(=O)[O-])n1.O=C(O)C(F)(F)F.[Na+]` (stereo not drawn) [Example 48, sodium and 2,2,2-trifluoroacetate [3-[3-[2-(2-ammoniumethylamino)-2-oxo-ethyl]pyrazol-1-yl]-7-oxo-1,6-diazabicyclo[3.2.1]oct-3-en-6-yl]sulfate], for which the IC50 on OXA-1 is 940 nM; at OXA-11 it was 200 nM; at CTX-M-15, 2.4 nM; on AmpC (PAE) it was 310 nM; at SHV-1, 5.3 nM; at OXA-48, 36 nM. Also, the IC50 came out at 510 nM on OXA-15; 80 nM at CMY-37; 1.4 nM at TEM-1; 110 nM on AmpC (P99); 130 nM at KPC-2. Moreover, the “MIC combination of CAZ and compounds of the invention at 4 μg/mL” value (“MIC combination” below) was 0.25 µg/mL in the assay with K. pneumoniae 6299 [1]; 4 µg/mL with P. aeruginosa CIP107051 [2]; 4 µg/mL in the assay with K. pneumoniae BAA-1898 [3]; under 0.25 µg/mL in the assay with E. coli 190317 [4]; 0.5 µg/mL in the assay with E. cloacae P99 [5]. In addition, the “MIC compounds of the invention alone” value is over 32 µg/mL in the assay on K. pneumoniae 6299 [6]; over 32 µg/mL in the assay with P. aeruginosa CIP107051 [7]; over 32 µg/mL in the assay with K. pneumoniae BAA-1898 [8]; 4 µg/mL with E. coli 190317 [9]; 32 µg/mL with E. cloacae P99 [10].

For `CN(C)C.NC(=O)CCc1nccn1C1=CC2CN(C1)C(=O)N2OS(=O)(=O)O` (stereo not drawn) [Example 73, trimethylammonium [3-[2-(3-amino-3-oxo-propyl)imidazol-1-yl]-7-oxo-1,6-diazabicyclo[3.2.1]oct-3-en-6-yl]sulfate], the IC50 is 44 nM on OXA-1; 87 nM at OXA-11; 4.4 nM on CTX-M-15; 250 nM at AmpC (PAE); 9.8 nM at SHV-1; 3.7 nM at OXA-48. For the same molecule, the IC50 on OXA-15 amounted to 270 nM; at CMY-37, 86 nM; on TEM-1, 1.9 nM; on AmpC (P99) it was 92 nM; on KPC-2 it was 78 nM. Also, the “MIC combination” value in the assay with K. pneumoniae 6299 [1] is 4 µg/mL; in the assay on P. aeruginosa CIP107051 [2], 8 µg/mL; in the assay on K. pneumoniae BAA-1898 [3], 1 µg/mL; with E. coli 190317 [4], 0.5 µg/mL; in the assay on E. cloacae P99 [5], 4 µg/mL. For the same molecule, the “MIC compounds of the invention alone” value with K. pneumoniae 6299 [6], with P. aeruginosa CIP107051 [7], in the assay with K. pneumoniae BAA-1898 [8], in the assay on E. coli 190317 [9] and with E. cloacae P99 [10] was over 32 µg/mL in each case.

Regarding `O=C([O-])CCc1cn(C2=CC3CN(C2)C(=O)N3OS(=O)(=O)[O-])nn1.[Na+].[Na+]` (stereo not drawn) [Example 65, disodium [3-[4-(propanoate)triazol-1-yl]-7-oxo-1,6-diazabicyclo[3.2.1]oct-3-en-6-yl]sulfate], the IC50 on OXA-1 turned out to be 53 nM; at OXA-11, 270 nM; on CTX-M-15, 0.96 nM; at AmpC (PAE), 490 nM; on SHV-1, 2.8 nM; on OXA-48, 0.8 nM. The IC50 at OXA-15 is 6.7 nM; at CMY-37, 13 nM; at TEM-1, 0.27 nM; on AmpC (P99), 11 nM; on KPC-2 it was 6 nM. The “MIC combination” value in the assay on K. pneumoniae 6299 [1] was found to be 2 µg/mL; in the assay on P. aeruginosa CIP107051 [2], 8 µg/mL; in the assay on K. pneumoniae BAA-1898 [3] it was 64 µg/mL; with E. coli 190317 [4], 0.5 µg/mL; in the assay on E. cloacae P99 [5] it was 8 µg/mL. Also, the “MIC compounds of the invention alone” value in the assay with K. pneumoniae 6299 [6] is 32 µg/mL; in the assay with P. aeruginosa CIP107051 [7], over 32 µg/mL; in the assay on K. pneumoniae BAA-1898 [8], 32 µg/mL; with E. coli 190317 [9], 32 µg/mL; with E. cloacae P99 [10], 32 µg/mL.

Turning to `NCc1cnn(C2=CC3CN(C2)C(=O)N3OS(=O)(=O)[O-])c1.O=C(O)C(F)(F)F.[Na+]` (stereo not drawn) [Example 15, sodium and 2,2,2-trifluoroacetate [3-(4-methyleneammoniumpyrazol-1-yl)-7-oxo-1,6-diazabicyclo[3.2.1]oct-3-en-6-yl]sulfate], the IC50 at OXA-1 turned out to be 700 nM; at OXA-11, 270 nM; on CTX-M-15, 1.5 nM; on AmpC (PAE), 360 nM; on SHV-1, 6.5 nM; on OXA-48, 18 nM. Also, the IC50 on OXA-15 is 49 nM; at CMY-37, 76 nM; at TEM-1, 0.79 nM; on AmpC (P99) it was 80 nM; at KPC-2 it was 120 nM. For the same molecule, the “MIC combination” value in the assay with K. pneumoniae 6299 [1] was 0.25 µg/mL; with P. aeruginosa CIP107051 [2] it was 2 µg/mL; in the assay with K. pneumoniae BAA-1898 [3], at most 0.25 µg/mL; in the assay on E. coli 190317 [4], under 0.25 µg/mL; with E. cloacae P99 [5], at most 0.25 µg/mL. Besides, the “MIC compounds of the invention alone” value was over 32 µg/mL with K. pneumoniae 6299 [6]; 16 µg/mL with P. aeruginosa CIP107051 [7]; over 32 µg/mL in the assay on K. pneumoniae BAA-1898 [8]; 2 µg/mL in the assay on E. coli 190317 [9]; 8 µg/mL in the assay with E. cloacae P99 [10].

As to `O=C1N2CC(n3cc(N4CCOCC4)cn3)=CC(C2)N1OS(=O)(=O)[O-].[Na+]` (stereo not drawn) [Example 20], the IC50 stood at 6200 nM on OXA-1; 7100 nM on OXA-11; 3 nM at CTX-M-15; 910 nM at AmpC (PAE); 5.1 nM on SHV-1; 68 nM on OXA-48. Further, the IC50 came to 140 nM at OXA-15; 140 nM at CMY-37; 1.3 nM at TEM-1; 230 nM on AmpC (P99); 120 nM on KPC-2. Also, the “MIC combination” value in the assay on K. pneumoniae 6299 [1] is over 128 µg/mL; in the assay with P. aeruginosa CIP107051 [2], over 128 µg/mL; in the assay with K. pneumoniae BAA-1898 [3] it was over 128 µg/mL; with E. coli 190317 [4], 128 µg/mL; with E. cloacae P99 [5] it was over 128 µg/mL. In addition, the “MIC compounds of the invention alone” value with K. pneumoniae 6299 [6], in the assay on P. aeruginosa CIP107051 [7], with K. pneumoniae BAA-1898 [8], with E. coli 190317 [9] and in the assay on E. cloacae P99 [10] was over 32 µg/mL throughout.

The values are drawn from US10722520B2, “Heterocyclic compounds and their use in preventing or treating bacterial infections” (MUTABILIS, priority 2016, dated 2020).
